Reference: US20260062412A1, “NITROGEN-CONTAINING HETEROCYCLIC COMPOUND HAVING MYT1 INHIBITORY ACTIVITY” (CHUGAI SEIYAKU KABUSHIKI KAISHA, priority 2023, published 2026)

Biological target: MYT1 protein (Homo sapiens (Human), UniProt Q99640)
Assay: Test for binding to ATP binding site of MYT1 (Kinase Tracer 178 / Eu-Anti-GST antibody TR-FRET)
Conditions: ATP binding site of MYT1, 30 minutes at room temperature
Experimental: The binding capacity of each compound to the ATP binding site of MYT1 Kinase protein was evaluated. 5× Kinase Buffer A (manufactured by Thermo Fisher Scientific Inc., PV3189) was diluted to 5 times with Milli-Q water, thereby preparing 1× Kinase Buffer. Using 1× Kinase Buffer, MYT1 protein (manufactured by Carna Biosciences, Inc.) was diluted to a concentration of 0.005 μM and Eu-Anti-GST Antibody was diluted to a concentration of 1 μM. […] To a 96 well-plate, 2.5 μL of a compound diluted with DMSO was added. […] The mixture was well mixed and then allowed to stand at room temperature for 30 minutes. Thereafter, fluorescence wavelengths of 665 nm and 615 nm generated by irradiation with excitation light of 340 nm were detected using Envision (manufactured by PerkinElmer). The proportion of Tracer bound to MYT1 protein was calculated for every condition by dividing the intensity at the fluorescence wavelength of 665 nm by the intensity at the fluorescence wavelength of 615 nm.

Chain of MYT1 protein (Q99640 whole entry): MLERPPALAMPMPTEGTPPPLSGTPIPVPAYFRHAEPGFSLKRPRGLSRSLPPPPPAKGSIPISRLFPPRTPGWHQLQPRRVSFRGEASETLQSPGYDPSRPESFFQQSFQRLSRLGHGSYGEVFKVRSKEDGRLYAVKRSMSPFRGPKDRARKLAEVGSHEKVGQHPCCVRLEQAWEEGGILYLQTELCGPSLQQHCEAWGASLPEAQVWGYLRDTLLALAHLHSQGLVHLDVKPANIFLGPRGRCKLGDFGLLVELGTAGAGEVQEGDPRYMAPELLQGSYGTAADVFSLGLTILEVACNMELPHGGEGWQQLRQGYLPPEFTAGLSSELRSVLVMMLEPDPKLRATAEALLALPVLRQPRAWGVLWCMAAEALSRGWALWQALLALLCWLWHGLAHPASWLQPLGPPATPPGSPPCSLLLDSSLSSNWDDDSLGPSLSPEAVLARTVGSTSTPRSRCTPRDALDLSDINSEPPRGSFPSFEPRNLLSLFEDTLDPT

Structure (SMILES) | IC50
Nc1c(-c2ccc(F)c3[nH]ncc23)c2cc(Br)c3c(Cl)cccc3c2[nH]c1=O [Compound B16, 3-Amino-6-bromo-7-chloro-4-(7-fluoro-1H-indazol-4-yl)-1H-benzo[h]quinolin-2-one] | 46 nM
Nc1c(-c2ccc(Cl)c3[nH]ncc23)c2cc(C3CCCC3)c3ccccc3c2[nH]c1=O [Compound B40, 3-Amino-4-(7-chloro-1H-indazol-4-yl)-6-cyclopentyl-1H-benzo[h]quinolin-2-one] | 13 nM
Nc1c(-c2ccc(F)c3[nH]ncc23)c2cc(CC(F)(F)F)c3ncccc3c2[nH]c1=O [Compound C165, 3-Amino-4-(7-fluoro-1H-indazol-4-yl)-6-(2,2,2-trifluoroethyl)-1H-1,7-phenanthrolin-2-one] | 7.1 nM
Nc1c(-c2ccc(Cl)c3[nH]ncc23)c2cc(C3CCNCC3)ccc2[nH]c1=O [Compound A33, 3-Amino-4-(7-chloro-1H-indazol-4-yl)-6-piperidin-4-yl-1H-quinolin-2-one; 2,2,2-trifluoroacetate] | 13 nM
Nc1c(-c2c(F)ccc3[nH]ncc23)c2cc(C3CC3)c3ncccc3c2[nH]c1=O (atropisomer, axis not shown) [Compound C157, (R)-3-amino-6-cyclopropyl-4-(5-fluoro-1H-indazol-4-yl)-1H-1,7-phenanthrolin-2-one] | 310 nM
Nc1c(-c2ccc(F)c3[nH]ncc23)c2cc(C3=COCC3)c3ncccc3c2[nH]c1=O [Compound C94, 3-Amino-6-(2,3-dihydrofuran-4-yl)-4-(7-fluoro-1H-indazol-4-yl)-1H-1,7-phenanthrolin-2-one] | 8.4 nM
Nc1c(-c2cc(F)c(F)c3[nH]ncc23)c2cc(Br)c3ncccc3c2[nH]c1=O [Compound C66, 3-Amino-6-bromo-4-(6,7-difluoro-1H-indazol-4-yl)-1H-1,7-phenanthrolin-2-one] | 4.9 nM
Nc1c(-c2ccc(F)c3[nH]ncc23)c2cc(OC3CCC(F)(F)CC3)c3ncccc3c2[nH]c1=O [Compound C48, 3-Amino-6-(4,4-difluorocyclohexyl)oxy-4-(7-fluoro-1H-indazol-4-yl)-1H-1,7-phenanthrolin-2-one] | 10 nM
Cn1cc(-c2cc3c(-c4ccc(F)c5[nH]ncc45)c(N)c(=O)[nH]c3c3ccccc23)cn1 [Compound B29, 3-Amino-4-(7-fluoro-1H-indazol-4-yl)-6-(1-methylpyrazole-4-yl)-1H-benzo[h]quinolin-2-one] | 9.2 nM
CCc1cc(Cl)cc2c(-c3ccc(Cl)c4[nH]ncc34)c(N)c(=O)[nH]c12 [Compound A25, 3-Amino-6-chloro-4-(7-chloro-1H-indazol-4-yl)-8-ethyl-1H-quinolin-2-one] | 45 nM
N#Cc1cc2c(-c3ccc(Cl)c4[nH]ncc34)c(N)c(=O)[nH]c2c2ccccc12 [Compound B41, 3-Amino-4-(7-chloro-1H-indazol-4-yl)-2-oxo-1H-benzo[h]quinoline-6-carbonitrile] | 14 nM
Nc1c(-c2ccc(Cl)c3[nH]ncc23)c2cc(OCCC(F)F)c(F)cc2[nH]c1=O [Compound A2, 3-Amino-4-(7-chloro-1H-indazol-4-yl)-6-(3,3-difluoropropoxy)-7-fluoro-1H-quinolin-2-one] | 9.3 nM
N#CC1(c2cc3c(-c4ccc(F)c5[nH]ncc45)c(N)c(=O)[nH]c3c3cccnc23)CC1 [Compound C95, 1-[3-Amino-4-(7-fluoro-1H-indazol-4-yl)-2-oxo-1H-1,7-phenanthrolin-6-yl]cyclopropane-1-carbonitrile] | 8.7 nM
Cc1cc(-c2c(N)c(=O)[nH]c3ccc(Cl)cc23)c2cn[nH]c2c1 [Compound A55, 3-Amino-6-chloro-4-(6-methyl-1H-indazol-4-yl)-1H-quinolin-2-one] | 480 nM
Nc1c(-c2ccc(F)c3[nH]ncc23)c2cc(Br)c3ccccc3c2[nH]c1=O [Compound B21, 3-Amino-6-bromo-4-(7-fluoro-1H-indazol-4-yl)-1H-benzo[h]quinolin-2-one] | 20 nM
Cc1cc2c(-c3ccc(F)c4[nH]ncc34)c(N)c(=O)[nH]c2c2c1cnn2C [Compound I2, 7-Amino-6-(7-fluoro-1H-indazol-4-yl)-1,4-dimethyl-9H-pyrazolo[4,3-h]quinolin-8-one] | 16 nM
CN(C)C(=O)Cc1cc2c(-c3ccc(F)c4[nH]ncc34)c(N)c(=O)[nH]c2c2cccnc12 [Compound C93, 2-[3-Amino-4-(7-fluoro-1H-indazol-4-yl)-2-oxo-1H-1,7-phenanthrolin-6-yl]-N,N-dimethylacetamide] | 32 nM
Nc1c(-c2ccc(F)c3[nH]ncc23)c2cc(OCC3(F)CC3)c3ncccc3c2[nH]c1=O [Compound C38, 3-Amino-6-[(1-fluorocyclopropyl)methoxy]-4-(7-fluoro-1H-indazol-4-yl)-1H-1,7-phenanthrolin-2-one] | 5.7 nM
Nc1c(-c2ccc(Cl)c3[nH]ncc23)c2cc(OCC3CC3)c(Cl)cc2[nH]c1=O [Compound A13, 3-Amino-7-chloro-4-(7-chloro-1H-indazol-4-yl)-6-(cyclopropylmethoxy)-1H-quinolin-2-one] | 18 nM
CC#Cc1cc2c(-c3ccc(F)c4[nH]ncc34)c(N)c(=O)[nH]c2c2ccccc12 [Compound B28, 3-Amino-4-(7-fluoro-1H-indazol-4-yl)-6-prop-1-inyl-1H-benzo[h]quinolin-2-one] | 22 nM
Cc1cc2c(-c3ccc(Cl)c4[nH]ncc34)c(N)c(=O)[nH]c2c2ccccc12 [Compound B43, 3-Amino-4-(7-chloro-1H-indazol-4-yl)-6-methyl-1H-benzo[h]quinolin-2-one] | 15 nM
Nc1c(-c2ccc(F)c3[nH]ncc23)c2cc(N3CCCC3=O)c3ncccc3c2[nH]c1=O [Compound C112, 3-Amino-4-(7-fluoro-1H-indazol-4-yl)-6-(2-oxopyrrolidin-1-yl)-1H-1,7-phenanthrolin-2-one] | 78 nM

Now those with a lower IC50, led by results:

IC50 | Structure (SMILES)
3.7 nM | Nc1c(-c2ccc(F)c3[nH]ncc23)c2cc(N3CCC(F)(F)C3)c3ncccc3c2[nH]c1=O [Compound C115, 3-Amino-6-(3,3-difluoropyrrolidin-1-yl)-4-(7-fluoro-1H-indazol-4-yl)-1H-1,7-phenanthrolin-2-one]
1.7 nM | CCOc1cc2c(-c3cc(F)c(Cl)c4[nH]ncc34)c(N)c(=O)[nH]c2c2cccnc12 [Compound C193, 3-Amino-4-(7-chloro-6-fluoro-1H-indazol-4-yl)-6-ethoxy-1H-1,7-phenanthrolin-2-one]
1.4 nM | N#CC1(COc2cc3c(-c4ccc(F)c5[nH]ncc45)c(N)c(=O)[nH]c3c3cccnc23)CC1 [Compound C54, 1-[[3-Amino-4-(7-fluoro-1H-indazol-4-yl)-2-oxo-1H-1,7-phenanthrolin-6-yl]oxymethyl]cyclopropane-1-carbonitrile]
2.2 nM | Nc1c(-c2ccc(F)c3[nH]ncc23)c2cc(O[C@H]3CCOC3)c3ncccc3c2[nH]c1=O [Compound C12, 3-Amino-4-(7-fluoro-1H-indazol-4-yl)-6-[(3S)-oxolan-3-yl]oxy-1H-1,7-phenanthrolin-2-one]
2.9 nM | Nc1c(-c2ccc(F)c3[nH]ncc23)c2cc(N3CCC4(COC4)C3)c3ncccc3c2[nH]c1=O [Compound C120, 3-Amino-4-(7-fluoro-1H-indazol-4-yl)-6-(2-oxa-7-azaspiro[3.4]octan-7-yl)-1H-1,7-one]
1.9 nM | CCc1cc2c(-c3ccc(Cl)c4[nH]ncc34)c(N)c(=O)[nH]c2c2cccnc12 [Compound C150, 3-Amino-4-(7-chloro-1H-indazol-4-yl)-6-ethyl-1H-1,7-phenanthrolin-2-one]
1.8 nM | Cc1cc2c(-c3ccc(F)c4[nH]ncc34)c(N)c(=O)[nH]c2c2sncc12 [Compound H2, 7-Amino-6-(7-fluoro-1H-indazol-4-yl)-4-methyl-9H-[1.2]thiazolo[4,5-h]quinolin-8-one]
3.8 nM | Nc1c(-c2ccc(F)c3[nH]ncc23)c2cc(C3CCNCC3)c3cccnc3c2[nH]c1=O [Compound D21, 3-Amino-4-(7-fluoro-1H-indazol-4-yl)-6-piperidin-4-yl-1H-1,10-phenanthrolin-2-one]
2 nM | CN1CCN(c2cc3c(-c4ccc(F)c5[nH]ncc45)c(N)c(=O)[nH]c3c3cccnc23)CC1 [Compound C114, 3-Amino-4-(7-fluoro-1H-indazol-4-yl)-6-(4-methylpiperazin-1-yl)-1H-1,7-phenanthrolin-2-one]
3.4 nM | Nc1c(-c2ccc(F)c3[nH]ncc23)c2cc(N3CCS(=O)(=O)CC3)c3ncccc3c2[nH]c1=O [Compound C124, 3-Amino-6-(1,1-dioxo-1,4-thiazinan-4-yl)-4-(7-fluoro-1H-indazol-4-yl)-1H-1,7-phenanthrolin-2-one]
1.1 nM | Nc1c(-c2ccc(F)c3[nH]ncc23)c2cc(OCC(F)F)c3ncccc3c2[nH]c1=O [Compound C16, 3-Amino-6-(2,2-difluoroethoxy)-4-(7-fluoro-1H-indazol-4-yl)-1H-1,7-phenanthrolin-2-one]
3.7 nM | CCc1cc2c(-c3cc(F)c(F)c4[nH]ncc34)c(N)c(=O)[nH]c2c2cccnc12 [Compound C192, 3-Amino-4-(6,7-difluoro-1H-indazol-4-yl)-6-ethyl-1H-1,7-phenanthrolin-2-one]
3.3 nM | Nc1c(-c2c(F)ccc3[nH]ncc23)c2cc(Br)c3ncccc3c2[nH]c1=O [Compound C154, 3-Amino-6-bromo-4-(5-fluoro-1H-indazol-4-yl)-1H-1,7-phenanthrolin-2-one]
2.5 nM | Nc1c(-c2ccc(F)c3[nH]ncc23)c2cc(OCC3CC3)c3nccnc3c2[nH]c1=O [Compound G11, 8-Amino-5-(cyclopropylmethoxy)-7-(7-fluoro-1H-indazol-4-yl)-10H-pyrido[2,3-f]quinoxalin-9-one]
